Assay results published in patent US9540361B2, “N-substituted azetidine derivatives” (Merck Sharp & Dohme B.V., priority 2010, dated 2017).
Marks after values point to notes of the source that are not given here.

Key:
[1] = test system: MCF-7H cells; assay: 7-day in vitro proliferation assay in tamoxifen-resistant MCF-7H breast cancer cells (methyl-3H-thymidine incorporation); format: cell-based, human; details: for Efficacy (fractional to E2): fraction of maximal response, E2 = 1.00 per definition; for Efficacy (fractional to E2) / % E2: MCF-7H; for % E2: relative potency to induce proliferation, normalized against E2 (=100 per definition); for induce proliferation of MCF-7H breast cancer cells: potency range and efficacy in words
Protocol: To what extent compounds are capable of stimulating proliferation in ER-positive, tamoxifen-resistant breast cancer cells is tested in a 7-day in vitro proliferation assay using MCF-7H cells. More specifically, this in vitro bioassay is used to determine the efficacy (fraction of maximal response), pEC50, and relative potency of the compound to induce proliferation by comparing the data for this compound with those of the reference compound 17β-estradiol (E2) in the same test.
(§1) A more detailed description of the method used is as follows.
Cell culture: The human epithelial breast cancer cell line MCF-7H (origin: Hubrecht Laboratory, Utrecht, The Netherlands) was routinely maintained in complete medium which is a 1:1 mixture of Ham's F12 medium and Dulbecco's Modified Eagle Medium (DMEM; Invitrogen, Carlsbad, USA) without phenol red and enriched with 5% fetal calf serum (FCS; Hyclone, Utah, USA), 100 μg/ml streptomycin and 100 units/ml penicillin adapted to contain:
Cells were grown in 80 cm^2 culture flasks (Nunc, Roskilde, Denmark) and kept in an atmosphere of 5% CO2-95% air at 37 degrees Celsius. Cells were subcultured when they reached about 80-90% confluence, resulting in one passage a week. Subculturing includes detaching the cells using trypsin/EDTA and diluting the cell suspension 10 times.
Methyl-^3H-thymidine incorporation assay: MCF-7H cells were starved overnight in assay medium containing 5% charcoal-treated (CT) bovine calf serum (BCS; Hyclone) instead of FCS and a final concentration of 1.0 μg/ml bovine insulin, the day before plating. Cells were plated in assay medium containing 5% CT BCS, in white 24-wells plates (Perkin Elmer, Shelton, USA), at a density of 7.5×10^3 cells per well, each well containing 630 μL assay medium. Cells were allowed to attach and spread for 24 h before stimulation with reference and/or test compound(s). After a stimulation period of 7 days, 0.25 μCi/well of methyl-^3H-thymidine (GE Healthcare Limited, Buckinghamshire, UK) was added per well. Cultures were maintained in an atmosphere of 5% CO2-95% air at 37 degrees Celsius. After overnight incubation, excess methyl-^3H-thymidine was aspirated and the cells were washed with phosphate-buffered saline (PBS). After 1 h of incubation with 1 ml scintillation fluid Microscint-20 (Perkin Elmer), radioactivity was measured in a Packard TOP-count NXT microplate scintillation counter (Perkin Elmer).

[2] = molecular target: T1, estrogen receptor alpha (Homo sapiens, UniProt P03372); assay: ERα downregulation assay in T47D breast cancer cells (ERα ELISA); format: cell-based; details: 24 hours; for DR (%): downregulation of ERα relative to fulvestrant (100%), 1E-5 M, negative = upregulation
T1 construct: endogenous in cells; host or cells: T47D human breast cancer cells (ATCC)
T1 sequence (P03372 1-595): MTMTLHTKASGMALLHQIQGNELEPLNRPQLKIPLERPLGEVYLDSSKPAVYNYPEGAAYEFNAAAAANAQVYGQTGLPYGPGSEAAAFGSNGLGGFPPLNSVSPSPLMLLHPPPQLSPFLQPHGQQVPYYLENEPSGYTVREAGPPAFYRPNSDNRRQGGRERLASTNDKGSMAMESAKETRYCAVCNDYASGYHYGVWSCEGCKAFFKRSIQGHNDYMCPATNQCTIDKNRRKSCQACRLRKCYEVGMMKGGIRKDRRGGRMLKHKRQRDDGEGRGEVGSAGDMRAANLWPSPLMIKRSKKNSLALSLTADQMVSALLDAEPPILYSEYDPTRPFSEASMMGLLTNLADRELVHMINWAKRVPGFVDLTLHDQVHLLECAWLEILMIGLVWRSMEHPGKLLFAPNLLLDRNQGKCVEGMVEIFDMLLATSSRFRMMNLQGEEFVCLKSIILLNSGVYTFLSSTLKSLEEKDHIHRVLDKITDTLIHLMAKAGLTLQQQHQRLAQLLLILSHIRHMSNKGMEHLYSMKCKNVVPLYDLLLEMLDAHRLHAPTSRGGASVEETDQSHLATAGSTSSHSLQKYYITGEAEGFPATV
Description: More specifically, this in vitro bioassay is used to determine the efficacy (fraction of maximal response) of the compound by comparing the data for this compound with those of the reference compound ICI 182,780 (fulvestrant) in the same test (downregulation of fulvestrant is 100% by definition).
as §1
Cell culture. The human epithelial breast cancer cell line T47D (origin: ATCC) was routinely maintained in a 1:1 mixture of Ham's F12 medium and Dulbecco's Modified Eagle Medium (Gibco) enriched with 5% fetal calf serum (Hyclone), 10 mM HEPES pH 7.5 and 100 μg/ml penicillin-streptomycin solution. Cells were grown in 80 cm2 culture flasks (Nunc, Roskilde, Denmark) and kept in an atmosphere of 5% CO2-95% air at 37 degrees Celsius. Cells were subcultured when they reached about 80-90% confluence, resulting in one passage a week. Subculturing includes detaching the cells using Cell Dissociation Buffer [Sigma] and subsequent inoculation at 1:5 or 1:10 in a new Roux flask (175 cc) and\or plating out in Nunclon™ Surface 96 wells microplates. The culture medium needs to be refreshed on day three or four of the incubation, if applicable.
Determination of ERα protein levels: T47D cells in the microplates are incubated with 1E-5 M test compound for 24 hours. The supernatant in all wells is carefully aspirated. Cells are lysed on the microplate and cell lysates are probed for ERα content using an ERα ELISA assay kit (Active Motif).

[3] = molecular target: T2, human estrogen receptor α (hERα) (Homo sapiens, UniProt P03372); assay: antagonistic activity in CHO cells co-transfected with hERα, rat oxytocin promoter and luciferase reporter gene; format: cell-based; details: antagonism of 17β-estradiol-induced transactivation, CHO-hERα-RO-LUC; read-out: ERα pIC50 (converted)
T2 sequence (P03372 1-595): T1 sequence (P03372 1-595)
Protocol: The antagonistic activity of compounds on the estrogen receptors was determined in an in vitro bioassay with recombinant Chinese Hamster Ovary (CHO) cells stably co-transfected with the human estrogen receptor α (hERα), the rat oxytocin promoter (RO) and the luciferase reporter gene (LUC). […] The antagonistic efficacy, i.e. the amount of maximal inhibition of the 17β-estradiol activated receptor by a compound, is expressed as fraction relative to the maximal inhibition as induced by the standard anti-estrogen ICI 164,384 (efficacy test compound=(maximal inhibition test compound/maximal inhibition ICI 164,384)). A more detailed description of the methodology can be found in De Gooyer et al., Steroids, 68 (2003) 21-30.

Q: With `CC/C(=C(\c1ccc(O)cc1)c1ccc(OCCN(C)C)cc1)c1ccccc1` [4OHT, 4-OH-tamoxifen] as the compound, how does the “Efficacy (fractional to E2)” value [1] read?
A: 0.49

Q: What about the “% E2” value [1] of the same compound?
A: 2.3%

Q: `COc1ccc(-c2sc3cc(O)ccc3c2Oc2ccc(OCCN3CCCCC3)cc2)cc1` [Arzoxifene] was tested. Which “Efficacy (fractional to E2)” value [1] did it give?
A: 0.34

Q: And the “% E2” value [1]?
A: 99.1%

Q: Which results are given for `CC/C(=C(/c1ccc(OCCN(C)C)cc1)c1cccc(O)c1)c1ccccc1` [Droloxifene]?
A: Efficacy (fractional to E2) [1]: 0.38; % E2 [1]: 5.9%

Q: For `C[C@]12CC[C@@H]3c4ccc(O)cc4CC[C@H]3[C@@H]1CC[C@@H]2O` [E2, 17β-estradiol], which “Efficacy (fractional to E2)” value [1] is on record?
A: 1.00 ^a

Q: What about the “induce proliferation of MCF-7H breast cancer cells” value [1] of the same compound?
A: in the picomolar range and with full efficacy

Q: And the “% E2” value [1]?
A: 100 ^a %

Q: For `C#C[C@]1(O)CC[C@H]2[C@@H]3CCc4cc(O)ccc4[C@H]3CC[C@@]21C` [EE, Ethynyl Estradiol], which “Efficacy (fractional to E2)” value [1] is on record?
A: 0.99

Q: And the “induce proliferation of MCF-7H breast cancer cells” value [1]?
A: in the picomolar range and with full efficacy

Q: What about the “% E2” value [1] of the same compound?
A: 137%

Q: How did the “Efficacy (fractional to E2)” value [1] turn out when `C[C@]12CC[C@@H]3c4ccc(O)cc4C[C@@H](CCCCCCCCC[S+]([O-])CCCC(F)(F)C(F)(F)F)[C@H]3[C@@H]1CC[C@@H]2O` (stereo partly drawn) [Fulvestrant] was run?
A: 0.02

Q: And the “% E2” value [1]?
A: 18.9%

Q: What about the “Downregulation (% of fulvestrant)” value ([2]; 1E-5 M test compound, fulvestrant = 100 per definition, negative number = upregulation or stabilization) of the same compound?
A: 100 ^a %

Q: `O=C(c1ccc(OCCN2CCCCC2)cc1)c1c(-c2ccc(O)cc2)sc2cc(O)ccc12` [Raloxifene] was tested. Which “Efficacy (fractional to E2)” value [1] did it give?
A: 0.33

Q: And the “% E2” value [1]?
A: 21.1%

Q: What does the source list for `CC/C(=C(\c1ccccc1)c1ccc(OCCN(C)C)cc1)c1ccccc1` [Tamoxifen]?
A: Efficacy (fractional to E2) [1]: 0.58; % E2 [1]: 0.008%

Q: What does the source list for `CCCN1CC(Oc2ccc(-c3c(-c4ccc(O)cc4)sc4cc(O)ccc34)cc2)C1.O=C(O)C(F)(F)F` [compound 6b, 2-(4-hydroxyphenyl)-3-(4-(1-propylazetidin-3-yloxy)phenyl)benzo[b]thiophen-6-ol 2,2,2-trifluoroacetate]?
A: Emax ([1]; Homo sapiens, MCF7, 168 h, efficacy (fraction of maximal response relative to E2) in MCF-7H proliferation, read-out: MCF7 ia): 10%; DR (%) [2]: 53%; IC50 [3]: 0.794 nM

Q: With `CC(C)CN1CC(Oc2ccc(C(=O)c3c(-c4ccc(O)cc4)sc4cc(O)ccc34)cc2)C1.Cl` [compound 7m, (6-hydroxy-2-(4-hydroxyphenyl)benzo[b]thiophen-3-yl)(4-(1-isobutylazetidin-3-yloxy)phenyl)methanone hydrochloride] as the compound, how does the “DR (%)” value [2] read?
A: 73%

Q: And the IC50 [3]?
A: 1 nM

Q: For `Cl.O=C(c1ccc(OC2CN(CC3CCC3)C2)cc1)c1c(-c2ccc(O)cc2)sc2cc(O)ccc12` [compound 7n, (4-(1-(cyclobutylmethyl)azetidin-3-yloxy)phenyl)(6-hydroxy-2-(4-hydroxyphenyl)benzo[b]thiophen-3-yl)methanone hydrochloride], which “DR (%)” value [2] is on record?
A: 77%

Q: What about the IC50 [3] of the same compound?
A: 1.26 nM

Q: For `Cl.O=C(c1ccc(OC2CN(CC3CCOC3)C2)cc1)c1c(-c2ccc(O)cc2)sc2cc(O)ccc12` (stereo not drawn) [compound 7o, (6-hydroxy-2-(4-hydroxyphenyl)benzo[b]thiophen-3-yl)(4-(1-((tetrahydrofuran-3-yl)methyl)azetidin-3-yloxy)phenyl)methanone hydrochloride], which “DR (%)” value [2] is on record?
A: 73%

Q: What about the IC50 [3] of the same compound?
A: 5.01 nM

Q: How did the “DR (%)” value [2] turn out when `Cl.O=C(c1ccc(OC2CN(CCC(F)(F)F)C2)cc1)c1c(-c2ccc(O)cc2)sc2cc(O)ccc12` [compound 7p, (6-hydroxy-2-(4-hydroxyphenyl)benzo[b]thiophen-3-yl)(4-(1-(3,3,3-trifluoropropyl)azetidin-3-yloxy)phenyl)methanone hydrochloride] was run?
A: 35%

Q: And the IC50 [3]?
A: 5.01 nM

Q: How did the “DR (%)” value [2] turn out when `CCCN1CC(Oc2ccc(C(=O)c3c(-c4ccc(O)cc4C)sc4cc(O)ccc34)cc2)C1.Cl` [compound 7q, (6-hydroxy-2-(4-hydroxy-2-methylphenyl)benzo[b]thiophen-3-yl)(4-(1-propylazetidin-3-yloxy)phenyl)methanone hydrochloride] was run?
A: 64%

Q: What about the IC50 [3] of the same compound?
A: 1.26 nM

Q: What does the source list for `CCCN1CC(Oc2ccc(C(=O)c3c(-c4ccc(O)c(C)c4)sc4cc(O)ccc34)cc2)C1.Cl` [compound 7r, (6-hydroxy-2-(4-hydroxy-3-methylphenyl)benzo[b]thiophen-3-yl)(4-(1-propylazetidin-3-yloxy)phenyl)methanone hydrochloride]?
A: DR (%) [2]: 94%; IC50 [3]: 2 nM

Q: `CCCN1CC(Oc2ccc(C(=O)c3c(-c4ccc(F)c(C)c4)sc4cc(O)ccc34)cc2)C1.Cl` [compound 7s, (2-(4-fluoro-3-methylphenyl)-6-hydroxybenzo[b]thiophen-3-yl)(4-(1-propylazetidin-3-yloxy)phenyl)methanone hydrochloride] was tested. Which “DR (%)” value [2] did it give?
A: 101%

Q: And the IC50 [3]?
A: 5.01 nM

Q: `CCCN1CC(Oc2ccc(C(=O)c3c(-c4cc(F)cc(F)c4)sc4cc(O)ccc34)cc2)C1.Cl` [compound 7t, (2-(3,5-difluorophenyl)-6-hydroxybenzo[b]thiophen-3-yl)(4-(1-propylazetidin-3-yloxy)phenyl)methanone hydrochloride] was tested. Which “DR (%)” value [2] did it give?
A: 98%

Q: What about the IC50 [3] of the same compound?
A: 2 nM

Q: Which results are given for `CCCN1CC(Oc2ccc(C(=O)c3c(-c4ccc(O)cc4)sc4cc(O)ccc34)cc2F)C1.Cl` [compound 7u, (3-fluoro-4-(1-propylazetidin-3-yloxy)phenyl)(6-hydroxy-2-(4-hydroxyphenyl)-benzo[b]thiophen-3-yl)methanone hydrochloride]?
A: DR (%) [2]: 78%; IC50 [3]: 0.794 nM

Q: With `Cl.Oc1ccc(-c2onc(-c3ccccc3Cl)c2-c2ccc(OC3CN(CC4CCOC4)C3)cc2)cc1` (stereo not drawn) [compound 7x, 4-(3-(2-chlorophenyl)-4-(4-(1-((tetrahydrofuran-3-yl)methyl)azetidin-3-yloxy)-phenyl)isoxazol-5-yl)phenol hydrochloride] as the compound, how does the “DR (%)” value [2] read?
A: 66%

Q: What about the IC50 [3] of the same compound?
A: 0.501 nM
